According to the NIST ThermoML archive (doi:10.1021/je2008582):

Settings: Liquid, Vibrating tube method

CCCCC/C=C\C/C=C\CCCCCCCC(=O)OC [methyl (Z,Z)-9,12-octadecadienate]
Settings | mass density [kg/m3]
270 K, 490 kPa | 904.6
270 K, 990 kPa | 904.9
270 K, 1990 kPa | 905.4
270 K, 3000 kPa | 905.9
270 K, 3990 kPa | 906.5
270 K, 5000 kPa | 907
270 K, 10000 kPa | 909.6
270 K, 20000 kPa | 914.6
270 K, 29990 kPa | 919.3
270 K, 39990 kPa | 923.8
270 K, 49970 kPa | 928.2
290 K, 500 kPa | 889.7
290 K, 990 kPa | 890
290 K, 1990 kPa | 890.6
290 K, 2990 kPa | 891.2
290 K, 3990 kPa | 891.8
290 K, 5000 kPa | 892.4
290 K, 9990 kPa | 895.2
290 K, 19990 kPa | 900.7
290 K, 30000 kPa | 905.8
290 K, 39990 kPa | 910.7
290 K, 49970 kPa | 915.3
310 K, 500 kPa | 875.1
310 K, 1000 kPa | 875.4
310 K, 1990 kPa | 876.1
310 K, 2990 kPa | 876.7
310 K, 3990 kPa | 877.4
310 K, 4990 kPa | 878
310 K, 9990 kPa | 881.1
310 K, 20000 kPa | 887
310 K, 30000 kPa | 892.5
310 K, 39990 kPa | 897.8
310 K, 49990 kPa | 902.8
330 K, 490 kPa | 860.6
330 K, 990 kPa | 860.9
330 K, 1990 kPa | 861.6
330 K, 2990 kPa | 862.4
330 K, 3990 kPa | 863.1
330 K, 4990 kPa | 863.8
330 K, 9990 kPa | 867.1
330 K, 19990 kPa | 873.5
330 K, 29980 kPa | 879.5
330 K, 39990 kPa | 885.1
330 K, 50000 kPa | 890.4
350 K, 500 kPa | 846.2
350 K, 1000 kPa | 846.6
350 K, 1990 kPa | 847.4
350 K, 2990 kPa | 848.2
350 K, 3990 kPa | 848.9
350 K, 5000 kPa | 849.7
350 K, 9990 kPa | 853.4
350 K, 19990 kPa | 860.3
350 K, 29990 kPa | 866.7
350 K, 40000 kPa | 872.7
350 K, 49980 kPa | 878.4
370 K, 490 kPa | 831.6
370 K, 990 kPa | 832.1
370 K, 1990 kPa | 832.9
370 K, 2990 kPa | 833.8
370 K, 4000 kPa | 834.6
370 K, 5000 kPa | 835.5
370 K, 10000 kPa | 839.5
370 K, 19990 kPa | 847
370 K, 29990 kPa | 854
370 K, 39990 kPa | 860.4
370 K, 49980 kPa | 866.4
390 K, 490 kPa | 817.1
390 K, 990 kPa | 817.6
390 K, 1990 kPa | 818.5
390 K, 3000 kPa | 819.5
390 K, 3990 kPa | 820.4
390 K, 4990 kPa | 821.3
390 K, 9990 kPa | 825.8
390 K, 20000 kPa | 834
390 K, 29990 kPa | 841.4
390 K, 40000 kPa | 848.3
390 K, 49990 kPa | 854.7
410 K, 490 kPa | 802.5
410 K, 1000 kPa | 803
410 K, 2000 kPa | 804.1
410 K, 2990 kPa | 805.1
410 K, 3990 kPa | 806.2
410 K, 4990 kPa | 807.2
410 K, 9990 kPa | 812.1
410 K, 19990 kPa | 821
410 K, 29990 kPa | 829.1
410 K, 40000 kPa | 836.5
410 K, 49970 kPa | 843.3
430 K, 490 kPa | 787.5
430 K, 1000 kPa | 788.1
430 K, 1990 kPa | 789.3
430 K, 2990 kPa | 790.5
430 K, 3990 kPa | 791.6
430 K, 5000 kPa | 792.7
430 K, 9990 kPa | 798.1
430 K, 19990 kPa | 807.9
430 K, 29990 kPa | 816.6
430 K, 40000 kPa | 824.5
430 K, 50010 kPa | 831.8
450 K, 490 kPa | 772.5
450 K, 990 kPa | 773.2
450 K, 2000 kPa | 774.5
450 K, 2990 kPa | 775.8
450 K, 4000 kPa | 777.1
450 K, 4990 kPa | 778.3
450 K, 10000 kPa | 784.3
450 K, 19990 kPa | 794.9
450 K, 30000 kPa | 804.3
450 K, 39990 kPa | 812.8
450 K, 49980 kPa | 820.6
470 K, 500 kPa | 757.5
470 K, 990 kPa | 758.3
470 K, 1990 kPa | 759.7
470 K, 3000 kPa | 761.2
470 K, 3990 kPa | 762.6
470 K, 4990 kPa | 764
470 K, 9990 kPa | 770.6
470 K, 19990 kPa | 782.2
470 K, 29990 kPa | 792.4
470 K, 39990 kPa | 801.5
470 K, 49980 kPa | 809.7

CCCCCCCC/C=C\CCCCCCCC(=O)OC [methyl cis-9-octadecenoate]
Settings | mass density [kg/m3]
270 K, 490 kPa | 892.3
270 K, 990 kPa | 892.6
270 K, 1990 kPa | 893.2
270 K, 2990 kPa | 893.7
270 K, 3990 kPa | 894.3
270 K, 4990 kPa | 894.8
270 K, 9990 kPa | 897.4
270 K, 19990 kPa | 902.4
270 K, 29990 kPa | 907.1
270 K, 39990 kPa | 911.7
270 K, 49830 kPa | 915.9
290 K, 490 kPa | 877.7
290 K, 1000 kPa | 878
290 K, 2000 kPa | 878.6
290 K, 3000 kPa | 879.2
290 K, 3990 kPa | 879.8
290 K, 4990 kPa | 880.4
290 K, 10000 kPa | 883.3
290 K, 19990 kPa | 888.7
290 K, 29990 kPa | 893.8
290 K, 39990 kPa | 898.7
290 K, 49960 kPa | 903.4
310 K, 490 kPa | 863.3
310 K, 990 kPa | 863.6
310 K, 2000 kPa | 864.3
310 K, 3000 kPa | 865
310 K, 4000 kPa | 865.6
310 K, 5000 kPa | 866.2
310 K, 9990 kPa | 869.3
310 K, 20000 kPa | 875.3
310 K, 29990 kPa | 880.8
310 K, 39990 kPa | 886.1
310 K, 49990 kPa | 891.1
330 K, 500 kPa | 849
330 K, 1000 kPa | 849.3
330 K, 2000 kPa | 850.1
330 K, 3000 kPa | 850.8
330 K, 3990 kPa | 851.5
330 K, 4990 kPa | 852.2
330 K, 10000 kPa | 855.6
330 K, 19990 kPa | 862
330 K, 29990 kPa | 868
330 K, 39990 kPa | 873.6
330 K, 49990 kPa | 878.9
350 K, 500 kPa | 834.6
350 K, 990 kPa | 835
350 K, 2000 kPa | 835.8
350 K, 2990 kPa | 836.6
350 K, 3990 kPa | 837.3
350 K, 5000 kPa | 838.1
350 K, 9990 kPa | 841.8
350 K, 20000 kPa | 848.8
350 K, 30000 kPa | 855.3
350 K, 40000 kPa | 861.3
350 K, 49980 kPa | 867
370 K, 500 kPa | 820.1
370 K, 990 kPa | 820.6
370 K, 1990 kPa | 821.4
370 K, 2990 kPa | 822.3
370 K, 3990 kPa | 823.2
370 K, 5010 kPa | 824
370 K, 10000 kPa | 828.1
370 K, 20010 kPa | 835.7
370 K, 29990 kPa | 842.6
370 K, 39990 kPa | 849.1
370 K, 49970 kPa | 855.1
390 K, 490 kPa | 805.7
390 K, 990 kPa | 806.2
390 K, 2000 kPa | 807.1
390 K, 3000 kPa | 808.1
390 K, 3990 kPa | 809
390 K, 5000 kPa | 810
390 K, 10000 kPa | 814.5
390 K, 19990 kPa | 822.7
390 K, 29980 kPa | 830.2
390 K, 40000 kPa | 837.2
390 K, 49990 kPa | 843.6
410 K, 490 kPa | 791
410 K, 990 kPa | 791.6
410 K, 2000 kPa | 792.7
410 K, 3000 kPa | 793.7
410 K, 3990 kPa | 794.8
410 K, 5000 kPa | 795.8
410 K, 10000 kPa | 800.8
410 K, 20000 kPa | 809.8
410 K, 30000 kPa | 817.9
410 K, 39990 kPa | 825.3
410 K, 50000 kPa | 832.2
430 K, 500 kPa | 776.2
430 K, 1000 kPa | 776.8
430 K, 1990 kPa | 778
430 K, 3000 kPa | 779.2
430 K, 3990 kPa | 780.3
430 K, 4990 kPa | 781.5
430 K, 9990 kPa | 786.9
430 K, 19990 kPa | 796.7
430 K, 29990 kPa | 805.5
430 K, 39990 kPa | 813.5
430 K, 49990 kPa | 820.8
450 K, 490 kPa | 761.2
450 K, 1000 kPa | 761.9
450 K, 1990 kPa | 763.2
450 K, 2990 kPa | 764.5
450 K, 3990 kPa | 765.8
450 K, 5000 kPa | 767.1
450 K, 10000 kPa | 773.1
450 K, 20000 kPa | 783.9
450 K, 29990 kPa | 793.3
450 K, 39990 kPa | 801.9
450 K, 50010 kPa | 809.7
470 K, 490 kPa | 746.3
470 K, 990 kPa | 747
470 K, 2000 kPa | 748.6
470 K, 2990 kPa | 750
470 K, 3990 kPa | 751.5
470 K, 5010 kPa | 752.9
470 K, 10000 kPa | 759.5
470 K, 19990 kPa | 771.2
470 K, 29990 kPa | 781.5
470 K, 39990 kPa | 790.6
470 K, 49970 kPa | 798.8
